Results from PubChem BioAssay AID1324 (NMMLSC, 2008).
Activity calls are given as the source filed them. How the calls were made is not given here.

molecular target: glutathione S-transferase (GST-GSH binding); assay: GST–glutathione interaction disruption – biochemical, multiplex beads, flow cytometry, HPSMTB buffer, profiling panel (AID 1324); conditions: multiplex bead flow cytometry, MCF;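 further: glutathione beads loaded with GST-green fluorescent protein and no fluorescent Bim peptide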

| SMILES | EC50 |
| --- | --- |
| Cc1cccc(N=C2NC(=O)/C(=C/C=C/c3ccco3)S2)c1C | inactive |
| CCOC(=O)c1ccc(Nc2nc(C(=O)OCC)nc3ccccc23)cc1 | 2380 nM |
| CCCCNc1nc(=S)[nH]c2cc(OC)c(OC)cc12 | inactive |
| COCCCNc1nc(=S)[nH]c2cc(OC)c(OC)cc12 | 5350 nM |
| O=c1c2c(-c3ccccc3)csc2nc2c3ccccc3c(NCCN3CCOCC3)nn12 | 210 nM |
| O=C(Nc1cccc(Cl)c1)Nc1ccnc(-c2cccnc2)n1 | inactive |
| CN(C)[C@@H]1C(=O)C(C(=O)NCN2CCCC2)=C(O)[C@@]2(O)C(=O)C3=C(O)c4c(O)cccc4[C@@](C)(O)C3CC12 (stereo not given in full) | inactive |
| CCN(CC)c1ccc(NC2=C(Cl)C(=O)c3ccccc3C2=O)cc1 | inactive |

same assay, conditions: multiplex bead flow cytometry, MCF, stronger effect = higher value, concentration not given here

| SMILES | percent span inhibition |
| --- | --- |
| Cc1ccc(-c2cc(-c3ccc(C)o3)nc(N)c2C#N)cc1 | inactive |
| CCOc1ccc(N2C(=O)C(Cl)=C(Nc3ccccc3O)C2=O)cc1 | inactive |
| Cc1csc(Nc2ccccc2C(F)(F)F)n1 | inactive |
| Clc1ccc2c(N/N=C/c3ccccc3Br)ccnc2c1 | inactive |
| O=C(N/N=C/c1cccnc1)c1cccc(S(=O)(=O)N2CCCC2)c1 | inactive |
| COc1ccccc1NC(=O)CSc1ncn(-c2ccccc2)n1 | inactive |
| Clc1ccc2c(N/N=C/c3ccc(Br)cc3)ccnc2c1 | inactive |
| O=C(N/N=C/c1ccncc1)c1cccc(NC(=O)c2ccccc2Cl)c1 | inactive |
| Cc1cc(N2CCN(C)CC2)nc2ccc(NC(=S)N3CCCCC3)cc12 | inactive |
| COC(=O)c1sc(NC(=O)c2ccc(Cn3cc(Cl)cn3)o2)c(C#N)c1C | inactive |
| Cc1ccc(-c2cc(C(=O)N3CCN(c4ncccn4)CC3)c3cc(Br)ccc3n2)o1 | inactive |
| Cc1cccc(OCC(=O)NCC(=O)N/N=C/c2cc(Br)ccc2OCc2ccccc2)c1 | inactive |
| COc1ccc2cc(CN(CCc3ccccc3)Cc3nnnn3CC3CCCO3)c(=O)[nH]c2c1 (stereo not given) | inactive |
| COP(=O)(CC(=O)O)c1ccccc1 (stereo not given) | inactive |
| O=C(Cn1c(-c2ccccc2)noc1=O)N1CCC(Cc2ccccc2)CC1 | inactive |
| O=C(Nc1cccc(Cl)c1)Nc1ccc(Cl)cn1 | inactive |
| COc1ccc(S(=O)(=O)NCCSc2ccc(Cl)cc2)cc1OC | inactive |
| COc1ccc(N2CCN(C(=O)c3cc(=O)[nH]c4ccccc34)CC2)cc1 | inactive |
| COc1cc(NC(=S)NC(=O)c2cc(C)cc(C)c2)ccc1NC(=O)c1cccs1 | inactive |
| O=C(Nc1ccccn1)c1cc2ccccc2o1 | inactive |
| Cc1ccc(CC(=O)OCCNC(=O)c2cccnc2)cc1 | inactive |
| Cc1noc(C)c1COc1ccc(C(=O)Nc2cccnc2)cc1 | inactive |
| COCCNc1nc(=S)[nH]c2cc(OC)c(OC)cc12 | inactive |

| SMILES | percent span inhibition |
| --- | --- |
| CCOc1ccccc1-n1c(=O)c2ccccc2c2ccccc2c1=O | inactive |
| Clc1nssc1=Nc1ccc(Br)cc1 | inactive |
| CCNC(=S)Nc1cc(OCC)c(NC(=O)c2cccs2)cc1OCC | inactive |
| O=C(NCc1ccco1)C1CC2CCC1C2 (stereo not given) | inactive |
| Cc1cc(-c2cc(-c3ccc(Cl)cc3)nc(N)c2C#N)co1 | inactive |
| CCn1c(C)nc2cc(C(=O)N/N=C/c3ccc(O)c(O)c3O)ccc21 | inactive |
| O=C(C1=NN[C@@H]2C(=O)N(c3ccccc3C(F)(F)F)C(=O)[C@H]12)c1ccc2ccccc2n1 | inactive |
| CNCc1ccccc1Sc1ccc(O)c(O)c1 | inactive |
| CCC(/C=C1\Sc2ccc(OC)cc2N1CCO)=C\c1sc2ccc(OC)cc2[n+]1CCO | inactive |
| CSc1n[nH]c2nc3c(c(=O)n12)C1(CCCC1)Cc1ccccc1-3 | inactive |
| Cc1ccc(-c2ccc(CCC(=O)O)n2NC(=O)c2cccs2)cc1 | inactive |
| O=C(CCl)Nc1cccc2ncccc12 | inactive |
| CSc1nnc2ccc(-c3cccs3)nn12 | inactive |
| Clc1ccc2c(N/N=C/c3cccc(Br)c3)ccnc2c1 | inactive |
| CCOc1cc(C2Nc3cccc4cccc(c34)N2)ccc1O | inactive |
| COc1ccccc1Cn1nnc2c(=O)[nH]c(C3CCN(C(=O)c4ccc(C)cc4)CC3)nc21 | inactive |
| COc1cccc2c(SCC(=O)N/N=C/c3ccc(O)cc3O)cc(C)nc12 | inactive |
| CC1Nc2ccccc2C(=O)N1NS(=O)(=O)c1ccccc1 (stereo not given) | inactive |
| O=C1N/C(=C/c2cccn2-c2ccccc2)C(=O)N1Cc1ccc(F)cc1 | inactive |
| COc1cc(C=Nc2cccc(C)c2)c(O)c([N+](=O)[O-])c1 | inactive |
| CCc1ccc(NC(=O)Cc2ccc(OC)cc2)cc1 | inactive |
| Cc1cccn2c(=O)c3cc(C(N)=S)c(=N)n(CCCN4CCOCC4)c3nc12 | inactive |
| COc1cc(C2Nc3cccc4cccc(c34)N2)ccc1OC(C)=O | inactive |

| SMILES | percent span inhibition |
| --- | --- |
| O=C(/C=C\c1ccc(-c2ccccc2)o1)c1ccccc1 | inactive |
| Cc1ccc(-n2nc(C)c(C(=O)O)n2)c(C)c1 | inactive |
| Cc1ccc(C)n1-c1cccc(C(=O)O)c1 | inactive |
| CCN(CC)c1ccc(Nc2nc(N3CCOCC3)c3ccccc3n2)cc1 | inactive |
| O=[N+]([O-])c1cccc(S(=O)(=O)NCC2CCCO2)c1 (stereo not given) | inactive |
| COc1ccc(C2C(C#N)=C(C)NC3=C2S(=O)(=O)c2ccccc23)cc1 (stereo not given) | inactive |
| CCOC(=O)CSC1=NC(=O)/C(=C/c2ccc(OC)cc2)S1 | inactive |
| CCN(CC)C(=O)COC(=O)c1cc(-c2ccco2)nc2ccccc12 | inactive |
| CCCC1(C(=O)OCC)NC(c2cc(OC)c(OC)c(OC)c2)C2C(=O)N(CC)C(=O)C21 (stereo not given) | inactive |
| Nc1ccccc1N=c1ssnc1Cl | inactive |
| CC[n+]1c(/C=C/C=C/N(C(C)=O)c2ccccc2)sc2ccccc21 | inactive |
| O=C(NCC1CCCO1)c1ccc2c(=O)n(-c3ccc(F)cc3)c(=S)[nH]c2c1 (stereo not given) | inactive |
| CCN(CC)c1ccc(NC(=O)COc2ccccc2C)cc1S(=O)(=O)Nc1ccccc1OC | inactive |
| O=C(O)c1cccc(NC2=C(Cl)C(=O)c3ccccc3C2=O)c1 | inactive |
| COc1cccc(/C=C2/SC(=O)N(C)C2=O)c1OCc1ccc(C(=O)O)cc1 | inactive |
| COc1cc(N2CCOCC2)ccc1C=C1C(=O)NC(=O)NC1=O | inactive |
| O=C(C1=NN[C@@H]2C(=O)N(c3cccc(F)c3)C(=O)[C@H]12)c1ccc2ccccc2n1 | inactive |
| COc1ccc(C(=O)/C=C/c2cc(OC)c(O)c(OC)c2)c(F)c1 | inactive |
| NC(=O)CSc1nnc(Cn2cnc3ccccc32)o1 | inactive |
| COc1ccc(N=C2NC(=O)/C(=C\C=C\c3ccco3)S2)cc1 | inactive |
| COc1ccc(CC(=O)Nc2ccc(-c3nc4cc(C)ccc4o3)c(O)c2)cc1OC | inactive |
| O=C(C1=C(Nc2ccccc2)c2ccccc2S(=O)(=O)N1)c1ccccc1 | inactive |
| COc1cc(/C=N/NC(=O)CN(Cc2ccco2)S(=O)(=O)c2ccccc2)ccc1O | inactive |

| SMILES | percent span inhibition |
| --- | --- |
| O=C(Cc1ccccc1)N/N=C/c1cccn1-c1ccc([N+](=O)[O-])cc1 | inactive |
| CN(C)c1ccc(/C=C2/SC(=O)N(CCN=C3NS(=O)(=O)c4ccccc43)C2=O)cc1 | inactive |
| COC(=O)c1c(C(=O)OC)c2cccc3cc(-c4ccccc4)c4ccc1c4n32 | inactive |
| O=C1C(Cl)=C(Nc2ccccc2O)C(=O)N1c1ccccc1 | inactive |
| CNc1ccccc(C(=O)/C=C/c2ccccc2OC)c1=O | inactive |
| Cc1ccc(C(=O)N(CCCN(C)C)c2nc3ccc(Cl)cc3s2)cc1C | inactive |
| COc1ccc(CC(=O)Nc2ccc3nc(C)sc3c2)cc1OC | inactive |
| O=C(Nc1nccs1)c1ccc(COc2ccc(F)cc2)o1 | inactive |
| Cc1ccc(NS(=O)(=O)c2cc(NC(=O)c3ccc4c(c3)NC(=O)CS4)ccc2C)c(C)c1 | inactive |
| CCOc1ccc(C2=Nn3c(nnc3-c3ccccn3)SC2)cc1 | inactive |
| CC(=O)NC1=C(NC2CCS(=O)(=O)C2)C(=O)c2ccccc2C1=O (stereo not given) | inactive |
| Cn1c(=O)c(C(=O)COC(=O)c2cc(-c3ccco3)nc3ccccc23)c(N)n(CC2CC2)c1=O | inactive |
| CNC(=S)N(Cc1cccs1)Cc1cc2ccc(OC)cc2[nH]c1=O | inactive |
| CCCCOc1ccc(Cc2c(Cl)nc(SC)nc2N2CCOCC2)cc1 | inactive |
| Cc1cc(C)cc(-n2c(C)nc3cc(C(=O)O)ccc32)c1 | inactive |
| COc1cccc(C(=O)/C=C/Nc2ccc(S(=O)(=O)Nc3onc(C)c3C)cc2)c1 | inactive |
| Cc1ccc(OCC(=O)NCc2ccccn2)c(Br)c1 | inactive |
| O=C1c2ccccc2C(=O)N1CN(C(=O)COc1ccc(Cl)cc1Cl)c1cccc(F)c1 | inactive |
| COC(=O)c1ccc(/C=N/NC(=O)CC(=O)NCc2cccnc2)cc1 | inactive |
| Cc1cc(/C=C(/C#N)C(=O)Nc2ccc(Cl)cc2)c(C)n1-c1cccnc1 | inactive |
| NC(=O)c1c(NC(=O)C2CCCO2)sc2c1CCCC2 (stereo not given) | inactive |
| Cc1cc(-c2csc(N)n2)c(C)n1CCc1ccccc1 | inactive |
| COc1cc2nc(=S)n(CCCN3CCOCC3)c(N)c2cc1OC | inactive |
